This note sets out measurements from patent publication US9101567B2, “Suppression of cancer growth and metastasis using nordihydroguaiaretic acid derivatives with 7-hydroxystaurosporine” (The Johns Hopkins University, priority 2010, dated 2015).

One experiment deals with BNIP3L. The experiment is described as follows: Western blotting of BNIP3L in LNCaP cells. In kind it is cell-based, human. The settings on record: M4N 80 μM. The method, then: The sample volumes were adjusted by the total protein amount. Protein assay was performed by Bio-Rad Protein Assay (Bio-Rad Laboratories, Inc. Hercules, Calif.). The samples were resolved by the standard SDS-polyacrylamide gel electrophoresis and transferred to nitrocellulose membrane (Amersham Biosciences, Bjorkgatan, Sweden). The membranes were blocked with skim milk, and incubated with primary antibodies at 4° C. overnight and then with secondary antibody conjugated with horse radish peroxidase at room temperature for 2 hrs. The signals were detected by western blot chemiluminescence reagent plus (New England Nuclear Life Science Products, Boston, Mass.). BNIP3 is a member of Bcl-2 family proteins which sends pro-apoptotic signal to mitochondria and induces mitochondrial membrane potential depolarization. […] This implies that BNIP3 is involved in autophagy as well as cell death. […] Since BNIP3 is known to be activated more under hypoxic conditions (24), BNIP3 expression was examined in both normoxic and hypoxic conditions (FIGS. 3A&B). […] Previously it was shown that BNIP3 expression is augmented by hypoxia through both […] (HIF)1α-dependent and nondependent pathways (24).

The test system of experiment [1] is mitochondrial membrane potential (ΔΨm). The experiment is described as follows: Measurement of mitochondrial membrane potential with JC-1 dye in LNCaP cells. In kind it is cell-based, human. The method, then: The cells were cultured in 6 well microwell dishes and treated with the culture medium containing JC-1 dye (Cayman Chemical, Ann Arbor, Mich.) for 30 min, according to the company's protocol. After the cells had been washed carefully, they were treated with M4N for 5 hrs. The cells were observed through B29/Zeiss LSM 510 μMETA laser confocal microscope (Carl Zeiss, Germany). The cell images were captured by two different excitation lights (with 488 nm argon-ion and 568 nm argon-krypton lasers). Both JC-1 monomer and J-aggregates are detected by 488 nm excitation light while only J-aggregates are detected by 568 nm excitation light. The ratio of the intensity of the emission light excited by 568 nm light to that of the emission light excited by 488 nm light at every pixel of images (The ratio should indicate the mitochondrial potential) was calculated by the imaging software (Carl Zeiss, Germany). In the figure the ratio was shown by pseudo color. Red color indicates high ratio (high potential) while dark blue indicates low ratio (low potential). Yellow through green to light blue represents medium ratio (medium potential).
Since BNIP3 functions to activate mitochondria-related cell death machinery and induce mitochondrial membrane depolarization, the effect of M4N on the mitochondrial membrane potential (ΔΨm) was examined (FIG. 3C). […]

For another experiment, the system named is LC3B-II. The experiment in a line: Western blotting of LC3B-II (autophagy) in HepG2 cells. The settings on record: HepG2, 15 hrs; M4N 80 μM. In kind it is cell-based, human. The method, then: The sample volumes were adjusted by the total protein amount. Protein assay was performed by Bio-Rad Protein Assay (Bio-Rad Laboratories, Inc. Hercules, Calif.). The samples were resolved by the standard SDS-polyacrylamide gel electrophoresis and transferred to nitrocellulose membrane (Amersham Biosciences, Bjorkgatan, Sweden). The membranes were blocked with skim milk, and incubated with primary antibodies at 4° C. overnight and then with secondary antibody conjugated with horse radish peroxidase at room temperature for 2 hrs. The signals were detected by western blot chemiluminescence reagent plus (New England Nuclear Life Science Products, Boston, Mass.). The effect of […] on autophagy was examined using the western blotting for LC3B-II in the presence of Baflomycin A1 in MCF-7 and HepG2 cells (FIG. 4D).

For another experiment, the system named is LNCaP tumors. The experiment in a line: Nude mice orthotopically implanted with LNCaP tumors: life-span and lung metastasis. In kind it is in vivo, nude (nu/nu) mice. The settings on record: LNCaP tumor-bearing nude mice; lung sections, hematoxylin and eosin.
The next experiment relates to caspase-3 or 9. The experiment in a line: Western blotting of caspase-3 and 9 cleavage in HepG2 cells. The settings on record: HepG2, 17 hrs; M4N 80 μM, UCN-01 5 μM. In kind it is cell-based, human. The method, then: After cells had been grown in […] flasks and treated with reagents, the cells were washed with PBS (−) three times and suspended in RIPA buffer (150 mM NaCl, 50 mM Tris-HCl (pH 8.0), 0.1% SDS, 1% NP40, and 0.5% deoxycholate) supplemented with protease inhibitor cocktail (Calbiochem, San Diego, Calif.). The sample volumes were adjusted by the total protein amount. Protein assay was performed by Bio-Rad Protein Assay (Bio-Rad Laboratories, Inc. Hercules, Calif.). The samples were resolved by the standard SDS-polyacrylamide gel electrophoresis and transferred to nitrocellulose membrane (Amersham Biosciences, Bjorkgatan, Sweden). […] The signals were detected by western blot chemiluminescence reagent plus (New England Nuclear Life Science Products, Boston, Mass.).
The effect of the combination treatments on cell death and autophagy was examined in two cell lines other than LNCaP cells. […] On the contrary caspase-7 cleavage was detected in MCF-7 cells treated with UCN-01 treatment alone, the combination treatments of M4N with either etoposide or UCN-01 (FIG. 4C). […] On the contrary a great deal of caspase-7 cleavage product was detected in HepG2 cells treated with UCN-01 or the combination treatment of M4N with UCN-01 while a small amount of caspase-7 cleavage product was detected in the cells treated with etoposide or rapamycin regardless of a concomitant treatment with M4N (FIG. 4C).

Structures are written as SMILES.

Protocol for LNCaP tumors: T-cell deficient male nude mice (nu/nu) were obtained from Charles River Laboratories (Wilmington, Mass.). […] For drug combinations (M4N/etoposide, M4N/rapamycin, and M4N/UCN-01), etoposide, rapamycin, or UCN-01 powder was further added to M4N in CPE 25/30 to make a final concentration of M4N (10 mg/ml) respectively with etoposide (4 mg/ml), rapamycin (3.75 mg/ml), or UCN-01 (884 g/ml) in CPE 25/30 formulation. These drugs were intravenously injected into the tail vein of mice at the daily dose of 0.1 ml per mouse. Therefore dosages of each injection were 1 mg/shot (for M4N), 0.4 mg/shot (for etoposide), 0.375 mg/shot (for rapamycin), and 88.4 μg/shot (for UCN-01). The drug injections were performed once every day; beginning at day 3 until day 31 after tumor inoculation for the combination treatment with either etoposide or rapamycin and until day 25 after tumor inoculation for the combination treatment with UCN-01. After this the drugs were injected once a week for etoposide/rapamycin combination treatment and once every three days until day 35 for UCN-01 combination treatment.
LNCaP cells growing subconfluently were collected into the tissue culture medium without fetal bovine serum and antibiotics. The cell concentration was adjusted by the same medium. […]

For the molecule `COc1ccc(C[C@@H](C)[C@@H](C)Cc2ccc(OC)c(OC)c2)cc1OC` [M4N, Tetra-O-methyl nordihyroguaiaretic acid], the BNIP3L expression result in the experiment on BNIP3L was “only slightly reduced”. Also, in experiment [1] (5 hrs, M4N 80 μM, JC-1 dye), the “mitochondrial membrane potential (ΔΨm)” value is “hyperpolarized”. The “depolarization of mitochondrial membrane potential induced by rottlerin or Ly294002” value in experiment [1] (concomitant treatment with M4N) is “reversed to the normal potential to some extent”. For the same molecule, in the experiment with LC3B-II, the “autophagy (LC3B-II in the presence of Baflomycin A1)” value is “blocks autophagy”. Further, in the experiment with LNCaP tumors, the “mice with obvious lung metastasis (histology)” value is given as 2 out of 4.
As to `CN[C@@H]1C[C@H]2O[C@@](C)([C@@H]1OC)n1c3ccccc3c3c4c(c5c6ccccc6n2c5c31)C(=O)N[C@H]4O` [UCN-01, 7-hydroxystaurosporine], in the experiment with caspase-3 or 9, the caspase-3 cleaved product entry is given as “small amount”.
